Literature values, collected in patent publication US6184241A, “Aspartic protease inhibitors” (Kansas State University Research Foundation, priority 1998, dated 2001).

Details: heterocyclic ring

Question: For `c1c[nH]cn1` [imidazole], which pKa is on record?
Answer: 6.0-7.0
